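Method: 48-hour compound exposure of cells in 96-well plates, five concentrations, linear interpolation of endpoints. At the GI50, growth is halved. TGI marks complete inhibition of growth.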
How the values were obtained:
Assay in all cases: NCI tumour cell line growth inhibition, 48 h
SK-MEL-28 melanoma = tested on: SK-MEL-28 melanoma
MOLT-4 leukemia = tested on: MOLT-4 leukemia
HT29 colon = tested on: HT29 colon
HCT-116 colon = tested on: HCT-116 colon
NCI-H522 lung = tested on: NCI-H522 lung
OVCAR-4 ovarian = tested on: OVCAR-4 ovarian
MDA-MB-435 = tested on: MDA-MB-435
SW-620 colon = tested on: SW-620 colon
SF-268 CNS = tested on: SF-268 CNS
SNB-19 CNS = tested on: SNB-19 CNS

SMILES	GI50 (SK-MEL-28 melanoma) [µM]	TGI (SK-MEL-28 melanoma) [µM]	GI50 (MOLT-4 leukemia) [µM]	TGI (MOLT-4 leukemia) [µM]	GI50 (HT29 colon) [µM]	TGI (HT29 colon) [µM]	GI50 (HCT-116 colon) [µM]	TGI (HCT-116 colon) [µM]	GI50 (NCI-H522 lung) [µM]	TGI (NCI-H522 lung) [µM]	GI50 (OVCAR-4 ovarian) [µM]	TGI (OVCAR-4 ovarian) [µM]	GI50 (MDA-MB-435) [µM]	TGI (MDA-MB-435) [µM]	GI50 (SW-620 colon) [µM]	TGI (SW-620 colon) [µM]	GI50 (SF-268 CNS) [µM]	TGI (SF-268 CNS) [µM]	GI50 (SNB-19 CNS) [µM]	TGI (SNB-19 CNS) [µM]
O=Cc1ccc(-c2ccc(-c3nc4ccccc4[nH]3)cc2)s1	47.7	> 100	32.4	> 100	38.9	> 100	18.4	39	26.3	> 100	33.8	96.1	26.4	69.2	59.4	> 100	19.8	48.3	–	–
C=C(C)[C@@H]1CC[C@]2(C(N)=O)CC[C@]3(C)[C@H](CC[C@@H]4[C@@]5(C)CC[C@H](O)C(C)(C)[C@@H]5CC[C@]43C)[C@@H]12	10.9	42.3	3.43	18.3	2.56	7.42	1.97	3.96	3.13	16.3	3.54	19.8	8.65	> 100	3.88	26.1	4.34	> 100	4.57	34.3
C[C@@H](N)C1CCC(C(=O)Nc2ccncc2)CC1 (some centres undefined)	> 100	> 100	> 100	> 100	> 100	> 100	> 100	> 100	> 100	> 100	> 100	> 100	> 100	> 100	> 100	> 100	> 83	> 100	> 100	> 100
Cc1ncc(C(=O)Nc2ccc(CN3CCN(C)CC3)c(C(F)(F)F)c2)cc1C#Cc1cnc(N)c2cnccc12	0.0181	0.376	0.0412	4.98	0.021	1.19	0.0434	1.23	0.0654	13.1	0.0447	4.25	0.0261	4.11	0.0649	1.39	0.0791	11.7	0.684	17.6
C[C@H]1CC[C@H]([C@@H](C)[C@H]2[C@@H](O)C[C@H]3[C@@H]4CC[C@H]5C[C@@H](O)CC[C@]5(C)[C@H]4CC[C@]23C)NC1	–	36.1	–	27.4	–	34.2	–	31.7	–	30.8	–	34.1	–	32.3	–	41.9	–	67.1	–	50.2
CCNCCC1(CC)C(=O)NC(=O)NC1=O	–	> 100	–	> 100	–	> 100	–	> 100	–	> 100	–	> 100	–	> 100	–	> 100	–	> 100	–	> 100
COc1cc2c3c(c4ccc(OC)c(OC)c4c2cc1OC)CN1CCC[C@@H]1C3	–	7.43	–	0.252	–	0.593	–	3.1	–	0.792	–	1.42	–	5.83	–	> 47.7	–	2.38	–	0.0826
CCN(CC)CC.CCOc1ccc(NC(=O)N=C=[N-])cc1.[CH-]1CCCCC1.[CH-]1CCCCC1.[CH-]1CCCCC1.[Cl-].[Sn+4]	0.0349	0.088	0.0281	0.233	0.022	0.0467	0.014	0.0289	0.0205	0.0549	0.0446	0.139	0.0151	0.0296	0.0169	0.0326	0.0332	0.0954	0.0586	0.122
Cc1cccc(-c2nn3c(c2-c2ccnc4ccc(C(N)=O)cc24)CCC3)n1	> 100	> 100	> 100	> 100	52.5	> 100	> 100	> 100	> 100	> 100	> 100	> 100	> 91.4	> 100	> 100	> 100	> 100	> 100	> 100	> 100
COC(=O)C(Cc1cnc[nH]1)NC(=O)CNC(=O)CCCn1c(=O)c2c3ccccc3n(C)c2n2nnc(-c3ccccc3)c12 (centres undefined)	> 100	> 100	> 100	> 100	> 100	> 100	> 100	> 100	> 100	> 100	> 100	> 100	> 100	> 100	> 100	> 100	> 100	> 100	> 100	> 100
NCCCCCCCCn1c2c(c3ccccc3c1=O)C(=O)c1ccccc1-2	2.87	8.47	1.82	3.53	1.86	4.02	–	–	2.46	6.37	4.34	27.4	5.63	21.5	1.8	3.34	6.44	> 100	5.9	80.8
COc1c2c3ccccc3nc-2n(C)c2ccccc12	14.7	36.9	4.7	> 100	4.75	> 100	4.18	81.7	49.2	> 100	–	–	13.9	38.3	7.97	> 100	10.2	30.4	17.1	> 100
CN(C)CCCNC(=O)c1ccc2oc3cc4ccccc4c(=O)n3c2c1	19.9	> 50	> 50	> 50	15.4	46.8	30.8	> 50	17.4	> 50	–	–	31.6	> 50	24.3	> 50	15.4	> 50	> 50	> 50
NC(=NCCCC1(c2ccccc2)CCCC1)Nc1ccc(Cl)cc1	–	–	1.58	4.11	1.72	3.17	1.44	2.86	1.68	3.32	1.68	3.17	1.77	3.21	1.85	3.85	1.66	3.35	1.81	3.98
CNC1C(O)C(OC2C(N)CC(N)C(OC3OC(CN)=CCC3N)C2O)OCC1(C)O (centres undefined)	–	> 100	–	> 100	–	> 100	–	> 100	–	> 100	–	–	–	> 100	–	> 100	–	> 100	–	> 100
COc1cc2c(c(OC)c1O)-c1ccc(OC)c(=O)cc1[C@@H](NC(=O)C(F)(F)F)CC2	–	> 100	–	> 100	–	–	–	> 40.8	–	0.0665	–	> 100	–	0.055	–	> 100	–	> 100	–	> 100
CCOC(CCCNCCCn1c2c(c3cc(OC)c(OC)cc3c1=O)C(=O)c1cc3c(cc1-2)OCO3)OCC	6.22	12.5	–	–	5.12	10.9	2.41	9.83	5.34	11.3	6.69	13.1	7.32	13.9	2.63	10.5	2.97	10.4	6.13	12.3
CCOC(=O)C(Cc1c[nH]c2ccc([N+](=O)[O-])cc12)(NC(C)=O)C(=O)OCC	975	> 1000	35.2	> 1000	> 1000	> 1000	139	> 1000	79.5	460	–	–	> 1000	> 1000	> 1000	> 1000	188	> 1000	138	598
O=C(NCCc1ccccc1)C(c1ccccc1)(c1ccccc1)c1ccccc1	20.1	> 100	> 100	> 100	–	–	1.95	> 100	13.1	38.1	> 100	> 100	12.2	45.8	4.35	> 100	30	> 100	7.27	> 100
CO/[N+]([O-])=C\C(=O)N/C=C/C(=O)O	–	> 100	–	> 100	–	–	–	> 100	–	> 100	–	> 100	–	> 100	–	> 100	–	> 100	–	> 100
CCCCCCCCCCCCNC(=O)[C@H]1CSC(c2cc3ccccc3s2)N1 (some centres undefined)	0.644	1.39	0.657	1.37	1.74	5.87	1.06	3.42	5.11	11.1	0.849	1.97	0.605	1.19	2.3	7.93	–	–	5.47	11.2

— PubChem BioAssay (NCI)
